Laboratory results as given in PMC3250956, “Functional characterization and analgesic effects of mixed cannabinoid receptor/T-type channel ligands” (Molecular Pain, 2011).

How the values were obtained:
[1] = molecular target: T1, rat 5-HT2C (Rattus norvegicus, UniProt P08909); assay: Primary radioligand competitive binding assay, [3H]mesulergine; conditions: ligand 10 μM, HEK293 cells
T1 construct: expressed in transfected cells; host or cells: HEK293 (Flp-In system, pcDNA5.0FRT)
T1 sequence (P08909 33-460): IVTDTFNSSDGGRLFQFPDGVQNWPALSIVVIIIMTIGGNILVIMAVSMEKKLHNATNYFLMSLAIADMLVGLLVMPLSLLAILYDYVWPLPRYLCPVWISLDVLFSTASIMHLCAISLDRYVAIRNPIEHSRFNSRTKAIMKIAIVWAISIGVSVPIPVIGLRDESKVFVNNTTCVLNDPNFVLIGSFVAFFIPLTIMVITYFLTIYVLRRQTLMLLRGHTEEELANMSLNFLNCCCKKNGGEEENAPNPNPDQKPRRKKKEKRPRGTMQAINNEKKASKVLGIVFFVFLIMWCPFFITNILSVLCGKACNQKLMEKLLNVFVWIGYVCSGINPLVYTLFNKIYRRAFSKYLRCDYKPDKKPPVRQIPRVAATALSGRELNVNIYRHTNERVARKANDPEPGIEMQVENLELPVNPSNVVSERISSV
Protocol: HEK293 cells and CHO cells were used in the radioligand binding assay while tsA-201 cells were used in the electrophysiological study. Human CB2, human 5-HT2A, rat 5-HT2C used in the binding studies were cloned into pcDNA5.0FRT and cell lines were made using the FlpIn system from Invitrogen. tsA-201 cell culture and transient calcium channel transfection were performed as described previously. In brief, tsA-201 cells were transfected using the calcium phosphate method. Cav3.1, 3.2 and 3.3 α1 subunits were transfected individually with yellow fluorescent protein as a transfection marker.
Radioligand binding data were obtained using National Institute of Mental Health's Psychoactive Drug Screening Program (NIMH/PDSP) using the same protocol described for CB1 and CB2 binding experiments. Transfected HEK293 (human 5-HT2A or rat 5-HT2C) cells were used. The radioligands were [^3H]ketanserin (0.5 nM) and [^3H]mesulergine (0.5 nM) for respectively 5-HT2A and 5-HT2C experiments. Non-specific binding was determined in the presence of 10 μM chlorpromazine for both 5-HT2A and 5-HT2C binding experiments. Cells were harvested and homogenized in 50 mM Tris HCl, 10 mM MgCl2, 0.1 mM EDTA, pH 7.4. Incubation of radioreceptor binding assay mixtures was 1.5 hours at room temperature in the dark.

[2] = molecular target: T2, N-type calcium channels (Homo sapiens, UniProt Q00975); assay: Whole-cell patch-clamp on N-type calcium channels; assay type: cell-based; conditions: n = 5, read-out: effect on N-type calcium channels (inhibition)
T2 construct: expressed in transfected cells; host or cells: tsA-201 cells (general electrophysiology statement)

[3] = molecular target: T3, Cav3.2 (Homo sapiens, UniProt O95180); assay: Whole-cell patch-clamp on Cav3.2: concentration-response and steady-state inactivation; assay type: cell-based; conditions: 10 μM; for half-inactivation potential after treatment with drug: n = 4
T3 construct: expressed in transfected cells; host or cells: tsA-201 cells, transient calcium phosphate transfection
T3 sequence (O95180 whole entry): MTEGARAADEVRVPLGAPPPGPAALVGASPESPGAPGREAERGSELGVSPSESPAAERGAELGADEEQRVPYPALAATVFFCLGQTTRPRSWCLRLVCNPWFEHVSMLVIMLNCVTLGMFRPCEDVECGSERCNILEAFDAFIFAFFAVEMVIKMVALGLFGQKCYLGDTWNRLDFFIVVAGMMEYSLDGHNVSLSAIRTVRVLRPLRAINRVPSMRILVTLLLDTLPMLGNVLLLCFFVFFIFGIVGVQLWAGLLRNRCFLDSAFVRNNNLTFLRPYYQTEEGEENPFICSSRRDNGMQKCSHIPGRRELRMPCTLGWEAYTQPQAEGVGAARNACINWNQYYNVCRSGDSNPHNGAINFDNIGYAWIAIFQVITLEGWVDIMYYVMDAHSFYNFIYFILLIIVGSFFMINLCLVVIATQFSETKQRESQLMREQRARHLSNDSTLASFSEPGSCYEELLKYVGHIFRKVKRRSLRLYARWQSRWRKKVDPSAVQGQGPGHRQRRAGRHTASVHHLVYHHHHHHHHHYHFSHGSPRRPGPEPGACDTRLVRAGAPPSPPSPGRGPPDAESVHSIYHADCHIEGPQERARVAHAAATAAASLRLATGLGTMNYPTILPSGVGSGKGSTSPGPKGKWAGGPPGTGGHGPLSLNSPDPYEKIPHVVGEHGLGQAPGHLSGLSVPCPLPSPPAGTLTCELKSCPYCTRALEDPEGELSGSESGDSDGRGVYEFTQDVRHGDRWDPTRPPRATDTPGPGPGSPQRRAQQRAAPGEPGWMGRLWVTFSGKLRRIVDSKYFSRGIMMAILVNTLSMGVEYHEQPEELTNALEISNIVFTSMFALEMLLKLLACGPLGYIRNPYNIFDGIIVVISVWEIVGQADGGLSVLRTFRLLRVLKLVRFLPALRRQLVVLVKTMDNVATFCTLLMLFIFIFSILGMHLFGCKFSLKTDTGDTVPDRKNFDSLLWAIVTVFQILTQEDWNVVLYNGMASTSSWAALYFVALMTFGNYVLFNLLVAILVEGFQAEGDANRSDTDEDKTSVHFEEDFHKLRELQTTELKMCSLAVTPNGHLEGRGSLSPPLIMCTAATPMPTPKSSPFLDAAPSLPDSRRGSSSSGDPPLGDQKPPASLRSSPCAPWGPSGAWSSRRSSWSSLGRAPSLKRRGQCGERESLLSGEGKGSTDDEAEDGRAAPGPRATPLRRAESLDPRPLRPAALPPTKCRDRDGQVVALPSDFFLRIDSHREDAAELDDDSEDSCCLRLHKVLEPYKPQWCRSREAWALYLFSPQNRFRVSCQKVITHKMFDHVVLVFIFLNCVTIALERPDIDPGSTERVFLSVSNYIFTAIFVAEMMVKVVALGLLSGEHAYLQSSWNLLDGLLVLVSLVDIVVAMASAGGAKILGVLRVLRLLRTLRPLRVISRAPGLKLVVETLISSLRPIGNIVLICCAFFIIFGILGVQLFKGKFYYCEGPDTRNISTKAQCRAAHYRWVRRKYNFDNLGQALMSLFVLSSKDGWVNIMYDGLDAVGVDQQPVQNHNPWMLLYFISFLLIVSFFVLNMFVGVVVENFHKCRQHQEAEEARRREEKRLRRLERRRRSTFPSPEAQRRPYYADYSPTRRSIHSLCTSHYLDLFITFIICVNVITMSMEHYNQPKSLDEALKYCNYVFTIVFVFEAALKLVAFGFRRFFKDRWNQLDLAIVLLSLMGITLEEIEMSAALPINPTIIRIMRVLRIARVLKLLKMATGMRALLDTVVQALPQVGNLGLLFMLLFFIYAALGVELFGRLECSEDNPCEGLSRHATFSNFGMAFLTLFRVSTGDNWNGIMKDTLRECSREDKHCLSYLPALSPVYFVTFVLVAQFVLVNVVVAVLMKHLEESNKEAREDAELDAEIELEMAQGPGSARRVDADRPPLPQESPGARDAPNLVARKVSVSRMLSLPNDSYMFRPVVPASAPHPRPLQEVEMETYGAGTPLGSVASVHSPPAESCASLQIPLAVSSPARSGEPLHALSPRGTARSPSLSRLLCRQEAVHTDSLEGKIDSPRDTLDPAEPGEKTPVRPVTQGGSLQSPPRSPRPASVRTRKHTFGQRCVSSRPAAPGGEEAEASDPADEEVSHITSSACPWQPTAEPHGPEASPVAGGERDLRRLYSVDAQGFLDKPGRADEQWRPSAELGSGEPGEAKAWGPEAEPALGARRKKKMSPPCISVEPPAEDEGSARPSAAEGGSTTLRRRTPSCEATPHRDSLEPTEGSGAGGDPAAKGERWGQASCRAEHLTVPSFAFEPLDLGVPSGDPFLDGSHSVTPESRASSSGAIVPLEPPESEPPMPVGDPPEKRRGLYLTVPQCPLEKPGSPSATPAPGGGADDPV
Protocol: To further characterize compounds NMP-4, NMP-7 and NMP-144, we investigated the concentration dependence of their action on Cav3.2, the major T-type calcium channel subtype implicated in the afferent pain pathway (Figure 2B, C).
To determine whether these compounds also affected inactivated channels, we recorded steady-state inactivation curves prior and after application of NMP-4, NMP-7 or NMP-144.
Whole-cell currents were recorded from tsa-201 cells 2-4 days after transfection. The external recording solution contained (in mM): BaCl2 (20), MgCl2 (1), HEPES (10), TEA-Cl (40), CsCl (65), d-glucose (10) and pH 7.2 adjusted with TEA-OH. The internal pipette solution was composed of (in mM) Cs-methanesulfonate (108), MgCl2 (4), EGTA (9), HEPES (9) and pH 7.2 adjusted with CsOH. The internal solution was supplemented with 0.6 mM GTP (sodium salt) and 2 mM ATP (tris salt), which were added directly to the internal solution immediately prior to use. Pipettes with a resistance of 2~5 MΩ when filled with internal solution were used for recording. Currents were elicited from a holding potential of -100 mV and were measured by conventional whole-cell patch clamp using an Axopatch 200B amplifier in combination with Clampex 9.2 software (Axon Instruments, Foster City, CA). Data were filtered at 1 kHz (8-pole Bessel) and digitized at 10 kHz with a Digidata 1320 (Axon Instruments, Foster City, CA). Series resistance were compensated by 85% in all experiments. An online P/4 programme was used to subtract the leak currents. Drugs were dissolved in DMSO at the following stock concentrations: 20 mM for NMP-4 and NMP-7, and 10 mM for NMP-139, NMP-140, NMP-141 and NMP-144. Prior to the experiment, drugs were diluted into external recording solution with a final DMSO concentration no higher than 0.3%. DMSO was also included in the control solution. Drug delivery was controlled by a Valvelink8.2 fast perfusion system (Automate Scientific Inc., Berkeley, CA). The perfusion tip was positioned a few hundred microns from the cell and kept as constant as possible throughout the experiments. Electrophysiological data were analyzed using Clampfit 9.2 (Axon Instruments, Foster City, CA) and GraphPad Prism 5 software (GraphPad Software Inc., San Diego, CA). […] Steady-state inactivation curves were fitted using the Boltzmann equation: I = 1/(1 + e ^(V-Vh)/k), where Vh is the half inactivating potential and k is the slope factor.

[4] = molecular target: Human CB1 (Homo sapiens, UniProt P21554); assay: GTPγ[35S] functional assay, CHO cell membrane extracts; set-up: Emax: dose or concentration left out as unconfirmed
Chain of Human CB1 (P21554 whole entry): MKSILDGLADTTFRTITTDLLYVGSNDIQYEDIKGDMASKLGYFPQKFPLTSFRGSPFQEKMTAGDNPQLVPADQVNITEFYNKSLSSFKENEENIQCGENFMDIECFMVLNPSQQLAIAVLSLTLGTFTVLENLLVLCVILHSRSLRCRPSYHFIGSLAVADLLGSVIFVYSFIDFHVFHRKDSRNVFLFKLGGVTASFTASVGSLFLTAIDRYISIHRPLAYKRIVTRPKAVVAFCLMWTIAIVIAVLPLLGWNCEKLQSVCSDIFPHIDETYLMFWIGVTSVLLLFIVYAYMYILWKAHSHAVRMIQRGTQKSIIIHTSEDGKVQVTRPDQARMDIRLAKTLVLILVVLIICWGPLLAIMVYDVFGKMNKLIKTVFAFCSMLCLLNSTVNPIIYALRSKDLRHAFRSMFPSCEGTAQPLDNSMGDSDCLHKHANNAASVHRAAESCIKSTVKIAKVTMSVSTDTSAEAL
Protocol: Functional activity was evaluated using GTPγ[^35S] assay in CHO cell membrane extracts expressing recombinant human CB1 or CB2 receptors as we previously described [51]. Compounds were solubilized in 100% DMSO at a concentration of 10 mM within 4 hours of the first testing session. A predilution for the dose response curve was performed in 100% DMSO and then diluted 100 fold in assay buffer at a concentration 2 fold higher than the concentration to be tested. […] Membranes were mixed with GDP diluted in assay buffer to give 30 μM solution (volume:volume) and incubated for at least 15 min on ice. In parallel, GTPγ[^35S] (GE Healthcare, Catalogue number SJ1308) were mixed with the beads (PVT-WGA (GE Healthcare, RPNQ001)), diluted in assay buffer at 50 mg/ml (0.5 mg/10 μl) (volume:volume) just before starting the reaction. The following reagents were successively added in the wells of an Optiplate (Perkin Elmer): 50 μl of ligand, 20 μl of the membranes:GDP mix, 10 μl of assay buffer for agonist testing, and 20 μl of the GTPγ[^35S]:beads mix. The plates were covered with a topseal, shacked on an orbital shaker for 2 min, and then incubated for 1 hour at room temperature. Then the plates were centrifuged for 10 min at 2000 rpm and counted for 1 min/well with a PerkinElmer TopCount reader. […] For replicate determinations, the maximum variability tolerated in the test was of ± 20% around the average of the replicates.

## CCCCCn1c2c(c3ccc(OC)cc31)CN(C(=O)c1ccccc1)CC2 [NMP-144]
[1]
  Rat 5-HT2C (%) primary radioligand competitive binding: 13%
[2]
  inhibition at 10 µM: 20%
[3]
  hyperpolarizing shift in the half inactivation potential of Cav3.2 channels: did not significantly affect voltage-dependent inactivation
  half-inactivation potential after treatment with drug: -55.8 ± 2.2 mV

## CCCCCn1c2ccc(C(=O)N3CCCCC3)cc2c2ccc(OC)cc21 [NMP-4]
[1]
  Rat 5-HT2C (%) primary radioligand competitive binding: -9.3%
[4]
  EC50: 118 ± 4 nM
[4]; read-out: GTPγ[35S] functional assays Human CB1 Emax
  Emax: 30.4%
[3]
  hyperpolarizing shift in the half inactivation potential of Cav3.2 channels: 20 mV
  half-inactivation potential after treatment with drug: -72.9 ± 4.7 mV
